Substitutions are numbered along the chain they refer to.
Experiments:
[1] = biological target: T1, AT1 C76A/V116C/C289A mutant receptor (Rattus norvegicus, UniProt P25095, C289A/C76A/V116C); test: substituted cysteine accessibility mapping (SCAM), C76A/V116C/C289A; format: binding; set-up: key: Less and More indicate that the AT1 receptor is less or more accessible to the ligand pocket, respectively; Less and More indicate that the AT1 receptor is less or more accessible to the ligand pocket, respectively; No change; conditions: 1 µM ARB, […] MTSEA+, COS1 membranes
T1 construct: expressed in transfected cells; host or cells: COS1 cells (membranes)
T1 sequence (P25095 1-359 C76A/V116C/C289A): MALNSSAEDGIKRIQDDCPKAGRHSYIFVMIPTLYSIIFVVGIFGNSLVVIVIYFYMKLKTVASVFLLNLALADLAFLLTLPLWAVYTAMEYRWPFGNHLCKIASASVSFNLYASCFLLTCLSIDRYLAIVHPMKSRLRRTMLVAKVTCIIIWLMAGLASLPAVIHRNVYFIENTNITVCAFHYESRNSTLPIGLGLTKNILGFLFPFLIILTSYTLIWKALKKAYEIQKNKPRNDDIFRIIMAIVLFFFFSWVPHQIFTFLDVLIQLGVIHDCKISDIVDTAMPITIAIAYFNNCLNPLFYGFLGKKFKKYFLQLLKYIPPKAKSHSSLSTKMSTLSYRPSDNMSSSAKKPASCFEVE
Source text: (§1) As we reported previously, the percentage (%) inhibition of ^125I-[Sar^1, Ile^8] AngII binding by methanethiosulphonate ethyl-ammonium (MTSEA^+) reagent was approximately 30% on AT1 receptor, since Cys^76 in TM2 was accessible to water within the ligand pocket. In addition, mechanical stretching increased the accessibility of Cys^289 by inducing a change in the conformation of TM7 [22]. To differentiate between single and multiple movements of one or more native cysteines, we created TM3 residues that were substituted with cysteine one at a time from […] to Phe^117 using the C76A/C289A mutant genetic background and evaluated each triple mutant for MTSEA sensitivity.
(§2) Figure 3 Changes in cysteine accessibility in COS1 cells expressing C76A/C289A mutant receptors in which the transmenbrane 3 residues from Ala^106 to Phe^117, except for position 113, were successively replaced by cysteine. 1 µM of ARBs, n=4–9, *p<0.05 vs. no treatment. #p<0.05 vs. C76A/C289A.
The SCAM method has been used to probe relative changes in the conformation of constitutively active AT1 receptor [20]–[22] and other GPCRs, [30] by validating the presence of Cys residues within the ligand pocket. […]

[2] = biological target: T2, AT1 C76A/S109C/C289A mutant receptor (Rattus norvegicus, UniProt P25095, C289A/C76A/S109C); test: substituted cysteine accessibility mapping (SCAM), C76A/S109C/C289A; format: binding; set-up: key: Less and More indicate that the AT1 receptor is less or more accessible to the ligand pocket, respectively; Less and More indicate that the AT1 receptor is less or more accessible to the ligand pocket, respectively; No change; conditions: 1 µM ARB, […] MTSEA+, COS1 membranes
T2 construct: expressed in transfected cells; host or cells: COS1
T2 sequence (P25095 1-359 C76A/S109C/C289A): T1 sequence (P25095 1-359 C76A/V116C/C289A) with S109C, C116V
Source text: as §1, §2
(§3) The SCAM method has been used to probe relative changes in the conformation of constitutively active AT1 receptor [20]–[22] and other GPCRs, [30] by validating the presence of Cys residues within the ligand pocket. We used a highly reactive, sulfhydryl-specific reaction with methanethiosulfonyl ethyl-ammonium (MTSEA^+), which reacts a billion times faster with water-exposed and ionized Cys than with lipid-exposed and un-ionized Cys. In this reaction, a positively charged sulfonylmethylammonium group is added to a water-exposed Cys. Aliquots of cell membranes are incubated with or without ARBs for 20 min in phosphate buffer at room temperature. The membranes are then diluted with same buffer and centrifuged. After washout the cell membranes, the membranes are incubated with 2.5 mM MTSEA^+ at room temperature for 2 min in HEPES buffer (pH7.4). The Membranes are then diluted with same buffer to stop the reaction and centrifuged. One hundred µl aliquots were used to assay for ^125I-[Sar^1,Ile^8]Ang II binding. […]

[3] = biological target: T3, wild-type (WT) AT1 receptor (Rattus norvegicus, UniProt P25095); set-up: expressed in transfected cells; host or cells: COS1 cells; conditions: previously reported; cited from earlier work
T3 sequence (P25095 1-359): T1 sequence (P25095 1-359 C76A/V116C/C289A) with A76C, C116V, A289C

[4] = biological target: T4, AT1 C76A/F117C/C289A mutant receptor (Rattus norvegicus, UniProt P25095, C289A/C76A/F117C); test: substituted cysteine accessibility mapping (SCAM), C76A/F117C/C289A; format: binding; set-up: key: Less and More indicate that the AT1 receptor is less or more accessible to the ligand pocket, respectively; Less and More indicate that the AT1 receptor is less or more accessible to the ligand pocket, respectively; No change; conditions: 1 µM ARB, […] MTSEA+, COS1 membranes
T4 construct: expressed in transfected cells; host or cells: COS1 cells (membranes)
T4 sequence (P25095 1-359 C76A/F117C/C289A): T1 sequence (P25095 1-359 C76A/V116C/C289A) with C116V, F117C
Source text: as §1, §2, §3

SMILES	Cysteine accessibility at Val116 compared to ligand (-) [1]	Cysteine accessibility at Ser109 compared to ligand (-) [2]	Cysteine accessibility at Ser109 compared to ligand (-) ([2]; listed as olmesartan)	Pharmacological behaviour toward IP production [3]	Cysteine accessibility at Phe117 compared to ligand (-) [4]	Cysteine accessibility at Phe117 compared to ligand (-) ([4]; listed as olmesartan)
CCCc1nc(C(C)(C)O)c(C(=O)O)n1Cc1ccc(-c2ccccc2-c2nnn[nH]2)cc1 [Olmesartan, olmesartan, reference compound]	No change	Less	less accessibility	inverse agonism	More	greater accessibility
CCCc1nc(C(C)(C)O)c(C(N)=O)n1Cc1ccc(-c2ccccc2-c2nnn[nH]2)cc1 [R239470]	No change	No change	–	neutral antagonist	No change	–
